From patent US7476508B2, “Method of screening agent for improving memory and learning ability” (Astellas Pharma Inc., priority 2003, dated 2009)

How the values were obtained:
[1] = biological target: T1, polypeptide consisting of the amino acid sequence of SEQ ID NO: 2 (Homo sapiens, UniProt Q9HCF6, R1695Q); experiment: Calcium influx with calcium-sensitive fluorescent reagent (Fluo3-AM, FLIPR) in HEK293 transformants; assay type: cell-based; conditions: for EC50: method of Example 6, read-out: EC50 of activation (calcium influx)
T1 construct: expressed in transfected cells
Text: (§1) To detect a channel activity of the polypeptide consisting of the amino acid sequence of SEQ ID NO: 2, animal cells were transfected with the expression vector pcDNA3.1-MLSN2 obtained in Example 1 to express the polypeptide. The expression vector pcDNA3.1-MLSN2 obtained in Example 1 and reagents for transfection (LIPOFECTAMINE or LIPOFECTAMINE2000; Invitrogen) were used to transform human embryonic kidney derived HEK293 cells (ATCC No.: CRL-1573) and induce the expression of the polypeptide consisting of the amino acid sequence of SEQ ID NO: 2. The cells transfected with LIPOFECTAMINE were used in Examples 4 and 5, and the cells transfected with LIPOFECTAMINE2000 were used in Examples 6, 7, and 16.
(§2) The transformants (4×10^4 cells) obtained in Example 3 were incubated at 37° C. for an hour in the presence of a calcium-sensitive fluorescent reagent (Fluo3-AM; DOJINDO), and the reagent was incorporated into the cells. The cells were washed with a physiological saline to remove the reagent not incorporated. A physiological saline supplemented with PS (final concentration=10 μmol/L) was added to the treated cells, and a time course of fluorescence emitted from the cells was measured using an automated fluorescence detector (FLIPR; Molecular Device). As controls, the same procedures were repeated, except that HEK293 cells transfected with pcDNA3.1(+) (i.e., control cells not expressing the polypeptide of SEQ ID NO: 2) were used, or except that a physiological saline without PS was used.
A screening of compounds (activating agents) capable of activating the polypeptide consisting of the amino acid sequence of SEQ ID NO: 2 was carried out. As an index of activation, a calcium influx into cells was detected by using a calcium-sensitive fluorescent reagent, more particularly, in accordance to the method described in Example 6.

[2] = system: HEK cells not expressing the polypeptide of SEQ ID NO: 2; experiment: Calcium influx (Fluo3-AM, FLIPR) in control HEK293 cells; assay type: cell-based, human; conditions: for increase in fluorescent intensity: negative control cells
Protocol: as §2
Various compounds were examined, and, as a compound showing an increase in fluorescent intensity, N-[3-(2,6-dichlorophenyl)-5-methylisoxazole-4-yl]-N′-ethyl-N-methyl-N′-phenylurea (code no. SPB 00071; MAYBRIDGE), 3-(2,6-difluorophenyl)-4-(piperidine-1-ylmethyl)-1,3-thiazole-2(3H)-thion (code no. MS 1368; MERLIN), 3-(2,6-difluorophenyl)-4-(pyrrolidine-1-ylmethyl)-1,3-thiazole-2(3H)-thion (code no. MS 1370; MERLIN), and N-(2-acetyl-3-thienyl)-2-[(2-chloro-6-fluorobenzyl)sulfanil]acetamide (code no. GK 00678; Ryan Scientific) (hereinafter referred to as compounds A, B, C, and D, respectively) were found.

[3] = system: primary cultured neurons derived from rat cerebral cortex; experiment: Calcium influx in primary cultured neurons derived from rat cerebral cortex; assay type: cell-based
Text: (§3) A pregnant rat was anesthetized with diethyl ether, and the chest (heart) was dissected to sacrifice the rat by exsanguination. An abdomen was opened, and the uterus was dissected. After a fetus was sterilized with rubbing alcohol in a clean bench, the whole brain was dissected and placed in a petri dish containing a culture medium for neurons (SUMILON; Sumitomo Bakelite). The cerebral cortex and the hippocampus were dissected with fine forceps under a stereomicroscope, and transferred to 50-mL tubes independently. Each tube was allowed to stand, to precipitate each tissue, and each supernatant was removed by suction. A solution for cell dissocition [phosphate buffered saline (PBS) supplemented with 1% papain, 150 U/mL DNase I, 0.02% L-cysteine, 0.02% bovine serum albumin (BSA), and 0.5% glucose] was added to each tube, incubated at 37° C. for 15 minutes, and centrifuged (1000 rpm, 4° C., 5 minutes). Each supernatant was removed by suction, and 10 mL of a serum-free medium was added to each tube. The whole in each tube was dispersed by pipetting several times, and cell debris was removed through a filter to obtain each cell suspension.
This example was carried out in accordance with known methods (Yoshihisa Kudo ed., Jikken Igaku, Supplement “Saibo-nai karushiumu jikken purotokoru”, 1996, Youdo-sha), except for the following procedures.
A time course of fluorescence emitted from cells was measured in accordance with the method described in Example 6, except that the primary cultured neurons (4×10^4 cells) derived from the rat brain (cerebral cortex), obtained in Example 13, were cultured for a week and used, and that the final concentration of PS was 10 μmol/L or 50 μmol/L. As a control, a physiological saline without PS was used.
Any one of compounds A, B, C, and D, and PS was applied to primary cultured neurons derived from the rat cerebral cortex obtained in Example 13, and a calcium influx into the neurons was measured. More particularly, the measurement was carried out in accordance with the method described in Example 14, except that the number of cells was 1×10^5 cells.

[4] = system: primary cultured neurons derived from the rat hippocampus; experiment: Spontaneous excitatory postsynaptic currents (sEPSCs) by whole-cell patch-clamp in primary cultured neurons; assay type: cell-based; conditions: voltage-clamped at −60 mV
Text: as §3
To confirm the effects of the activating agents on improving the memory, improving learning ability, and/or antidementia, any one of the compounds A, B, C, and D, which were found in Example 16 and can activate the polypeptide consisting of the amino acid sequence of SEQ ID NO: 2, was applied to the neurons to examine an activity of enhancing neurotransmission in the neurons. More particularly, effects of compounds A, B, C, and D on spontaneous excitatory postsynaptic currents (sEPSCs) in primary cultured neurons derived from the rat hippocampus, obtained in Example 13, were examined by a whole-cell patch-clamp method. The sEPSCs is a change of current generated in the neurons, when synaptic vesicles located at the terminus of another cell spontaneously exocytosis a neurotransmitter, and the former cell receives the released neurotransmitter. Therefore, neurotransmission between the neurons can be measured by measuring the sEPSCs (Journal of Neurophysiology, 76, 3159-3168, 1996; The Journal of Neuroscience, 19, 5311-5321, 1999). Further, it is known that the neurotransmission is suppressed by inhibiting the sEPSCs (Journal of Neuroscience Research, 72, 116-124, 2003).
More particularly, the cells (approximately 1×10^5 cells per dish) obtained in Example 13 were plated in a culture dish having a diameter of 35 mm, and cultured for 1 to 5 weeks. As a culture medium, a culture medium for the neurons (SUMILON; Sumitomo Bakelite) was used. Other procedures for cultivation were carried out in accordance with known methods (Methods in Neuroscience vol. 2, Cell culture, P. Michael Conn ed, Academic Press, Inc. 1990). The cell was voltage-clamped at −60 mV by a whole-cell voltage-clamp method, and a whole-cell current generated when PS or each compound was applied was measured (Yasunobu Okada ed., “Shin pacchi kuranpu jikken gijyutsu hou”, Yoshioka shoten, 2001). A solution containing 140 mmol/L NaCl, 5.4 mmol/L KCl, 2 mmol/L CaCl2, 0.8 mmol/L MgCl2, 15 mmol/L glucose, 10 mmol/L HEPES-Na (pH=7.4), 20 μmol/L bicuculline, and 1 μmol/L strychnine was used as an extracellular solution. A solution containing 100 mmol/L potassium gluconate, 10 mmol/L EGTA, 5 mmol/L MgCl2, 2 mmol/L K2ATP, 0.3 mmol/L Na2GTP, and 40 mmol/L HEPES-K (pH=7.25) was used as an intracellular solution.

[5] = biological target: T1, polypeptide consisting of the amino acid sequence of SEQ ID NO: 2; experiment: Whole-cell voltage-clamp detection of channel activity in transfected HEK293 cells; assay type: cell-based; conditions: n=10
Text: as §1
Each cell obtained in Example 3 was voltage-clamped by a whole-cell voltage-clamp method, and a whole-cell current generated when PS was applied was measured. […]
(§4) When PS (100 μmol/L) was extracellularly applied to the cell transfected with plasmid pcDNA3.1-MLSN2 at a holding potential of −40 mV, an inward current (−5.8±0.9, n=10) was measured. After washing the cell, PS was applid thereto at a holding potential of +40 mV, a large outward current (108.9±19.3, n=10) was measured. A current-voltage relationship was measured using a voltage ramp during the response, an outward rectifier was observed.

[6] = system: control cell not expressing the polypeptide of SEQ ID NO: 2; experiment: Whole-cell voltage-clamp in control cell transfected with no expression vector; assay type: cell-based, human; conditions: same conditions as the transfected cell
Protocol: Each cell obtained in Example 3 was voltage-clamped by a whole-cell voltage-clamp method, and a whole-cell current generated when PS was applied was measured. A solution containing 149 mmol/L NaCl, 5 mmol/L KCl, 2 mmol/L CaCl2, 0.8 mmol/L MgCl2, and 10 mmol/L HEPES-Na (pH=7.4) was used as an extracellular solution, and a solution containing 147 mmol/L CsCl, 4.5 mmol/L EGTA, and 9 mmol/L HEPES-Cs(pH=7.2) was used as an intracellular solution.
as §4

[7] = system: aged rats; conditions: non-patent reference 5; cited from earlier work
[8] = system: hippocampal slices; conditions: non-patent references 3, 6 and 7; cited from earlier work
[9] = final concentration 10 μmol/L, 1×10^5 cells

T1 sequence (Q9HCF6 154-1707 isoform Q9HCF6-2 R1670Q): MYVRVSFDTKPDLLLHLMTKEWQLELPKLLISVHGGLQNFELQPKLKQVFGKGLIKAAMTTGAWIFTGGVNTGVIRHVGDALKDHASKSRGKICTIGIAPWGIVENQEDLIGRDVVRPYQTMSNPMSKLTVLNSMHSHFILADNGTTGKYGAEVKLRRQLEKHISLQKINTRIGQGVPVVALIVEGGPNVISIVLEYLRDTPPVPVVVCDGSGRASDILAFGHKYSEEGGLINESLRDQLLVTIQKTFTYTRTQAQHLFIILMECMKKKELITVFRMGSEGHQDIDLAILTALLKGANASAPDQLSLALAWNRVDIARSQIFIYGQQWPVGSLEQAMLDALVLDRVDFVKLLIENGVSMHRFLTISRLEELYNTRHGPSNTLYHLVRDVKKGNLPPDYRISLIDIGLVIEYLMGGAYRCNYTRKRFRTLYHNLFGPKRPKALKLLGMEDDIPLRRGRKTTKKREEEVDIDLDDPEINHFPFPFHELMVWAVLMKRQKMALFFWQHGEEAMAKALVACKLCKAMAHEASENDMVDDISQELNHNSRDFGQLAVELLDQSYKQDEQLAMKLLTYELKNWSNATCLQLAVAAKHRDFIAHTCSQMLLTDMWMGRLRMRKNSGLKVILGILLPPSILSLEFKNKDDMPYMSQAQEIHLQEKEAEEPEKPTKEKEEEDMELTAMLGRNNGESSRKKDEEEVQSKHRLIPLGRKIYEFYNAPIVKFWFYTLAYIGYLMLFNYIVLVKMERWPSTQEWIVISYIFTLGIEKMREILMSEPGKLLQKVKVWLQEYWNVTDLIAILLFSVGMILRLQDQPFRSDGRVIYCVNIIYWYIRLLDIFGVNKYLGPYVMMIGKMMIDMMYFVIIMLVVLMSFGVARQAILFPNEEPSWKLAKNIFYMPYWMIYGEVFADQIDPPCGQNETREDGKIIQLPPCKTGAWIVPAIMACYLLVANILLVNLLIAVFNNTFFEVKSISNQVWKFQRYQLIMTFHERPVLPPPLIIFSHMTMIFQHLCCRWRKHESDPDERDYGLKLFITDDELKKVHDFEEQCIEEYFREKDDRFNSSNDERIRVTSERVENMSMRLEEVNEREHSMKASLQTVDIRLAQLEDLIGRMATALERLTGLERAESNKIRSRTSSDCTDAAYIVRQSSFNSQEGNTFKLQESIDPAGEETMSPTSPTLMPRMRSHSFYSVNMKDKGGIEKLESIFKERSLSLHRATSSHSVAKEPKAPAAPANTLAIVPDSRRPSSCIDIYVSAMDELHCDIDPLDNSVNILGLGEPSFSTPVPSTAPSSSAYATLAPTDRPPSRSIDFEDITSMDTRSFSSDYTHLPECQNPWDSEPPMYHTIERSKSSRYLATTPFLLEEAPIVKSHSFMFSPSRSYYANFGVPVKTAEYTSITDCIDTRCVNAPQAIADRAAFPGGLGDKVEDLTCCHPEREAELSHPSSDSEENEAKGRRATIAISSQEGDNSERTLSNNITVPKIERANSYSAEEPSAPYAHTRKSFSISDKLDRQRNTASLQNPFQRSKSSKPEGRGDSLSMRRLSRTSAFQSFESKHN

Compound | EC50 [1] | increase in fluorescent intensity [2] | increase in fluorescent intensity (calcium influx) [3, 9] | enhancement of sEPSCs ([4]; 10 μmol/L) | inward current ([5]; PS 100 μmol/L applied extracellularly, holding potential −40 mV) | outward current ([5]; PS applied after washing, holding potential +40 mV) | whole-cell currents on PS application [6] | increase in fluorescent intensity (calcium influx) ([1]; final concentration 10 μmol/L, immediately after addition) | fluorescent intensity (calcium influx) ([2]; PS 10 μmol/L, HEK293 cells transfected with pcDNA3.1(+)) | increase in fluorescent intensity (calcium influx) ([3]; 10 μmol/L, 4×10^4 cells cultured for a week) | increase in fluorescent intensity (calcium influx) ([3]; 50 μmol/L, 4×10^4 cells cultured for a week) | memory and learning ability [7] | neurotransmission (acetylcholine release, hippocampal spike frequency, LTP) [8] | enhancement of sEPSCs ([4]; 1 μmol/L)
CCN(C(=O)N(C)c1c(-c2c(Cl)cccc2Cl)noc1C)c1ccccc1 [compound A, N-[3-(2,6-dichlorophenyl)-5-methylisoxazole-4-yl]-N′-ethyl-N-methyl-N′-phenylurea] | 9.8 µM | such an increase in fluorescent intensity was not detected | an increase in fluorescent intensity was detected | the enhancement of sEPSCs was detected | – | – | – | – | – | – | – | – | – | –
Fc1cccc(F)c1-n1c(CN2CCCC2)csc1=S [compound C, 3-(2,6-difluorophenyl)-4-(pyrrolidine-1-ylmethyl)-1,3-thiazole-2(3H)-thion] | 1.9 µM | such an increase in fluorescent intensity was not detected | an increase in fluorescent intensity was detected | the enhancement of sEPSCs was detected | – | – | – | – | – | – | – | – | – | –
Pregnenolone sulfate [PS, reference compound] | – | – | an increase in fluorescent intensity was detected | the enhancement of sEPSCs was similarly detected | −5.8±0.9 | 108.9±19.3 | such currents were not observed | approximately 10,000 counts | approximately 0 count | an increase in fluorescent intensity was detected | an increase in fluorescent intensity was detected | the memory and learning ability were improved | enhancement of neurotransmission | –
CC(=O)c1sccc1NC(=O)CSCc1c(F)cccc1Cl [compound D, N-(2-acetyl-3-thienyl)-2-[(2-chloro-6-fluorobenzyl)sulfanil]acetamide] | 3.5 µM | such an increase in fluorescent intensity was not detected | an increase in fluorescent intensity was detected | – | – | – | – | – | – | – | – | – | – | the enhancement of sEPSCs was detected
Fc1cccc(F)c1-n1c(CN2CCCCC2)csc1=S [compound B, 3-(2,6-difluorophenyl)-4-(piperidine-1-ylmethyl)-1,3-thiazole-2(3H)-thion] | 6.8 µM | such an increase in fluorescent intensity was not detected | an increase in fluorescent intensity was detected | the enhancement of sEPSCs was detected | – | – | – | – | – | – | – | – | – | –
